≈ marks a conversion by molar mass, not a printed value. Like-named read-outs stand apart in the source and are kept apart here.
Test system: Cryptosporidium parvum (CP)
Experiment: Cell culture model of Cryptosporidium parvum infection in HCT-8 cells, real-time qRT-PCR
Format: cell-based
Conditions: for inhibition at 0.056 µM: HCT-8, @0.056 uM
Procedure: Fresh oocysts of CP (Iowa strain) were purchased from Bunch Grass Farm (Deary, Id.). Oocysts were further purified by a Percoll-based gradient centrifugation method and surface sterilized with 10% bleach for 7 min on ice, followed by washes with phosphate-buffered saline (PBS). An ileocecal colorectal adenocarcinoma cell line (HCT-8, ATCC #CCL-244) was used to host the growth of CP in vitro. One day before the inoculation, HCT-8 cells were seeded in 96-well plates (2.5×10^4/well) containing RPMI 1640 medium supplied with 10% fetal bovine serum (200 μL medium/well in all experiments) and allowed to grow overnight at 37° C. under 5% CO2 atmosphere until they reached ˜90% confluence. For drug testing, host cells were infected with 1.5×10^4 oocysts per well (ratio ˜1:3). After inoculation, parasite oocysts were allowed to undergo excystation and invasion into host cells for 3 h at 37° C. Free parasites and oocyst walls in the medium were removed from the plates by an exchange of the culture medium. Drugs at specified concentrations were added into the culture at this time point (immediately after the medium exchange). Parasite-infected cells were then incubated at 37° C. for additional 41 h (total 44 h infection time). At least two independent experiments were conducted for every experimental condition, each including two replicates drugs and eight replicates for negative controls.
Plates containing HCT-8 cells infected with CP for 44 h were first centrifuged for 10 min at 1000×g to ensure that free merozoites in the medium were firmly settled on the bottom of the wells. Medium was removed, followed by two gentle washes with PBS. For extracting total RNA, 200 μL of ice-cold Bio-Rad iScript qRT-PCR sample preparation reagent (lysis buffer) (Bio-Rad Laboratories, Hercules, Calif.) was added into each well. Plates were sealed with heat sealing films and subjected to vortex for 20 min. Plates were then incubated at 75° C. for 15 min, followed by centrifugation (5 min, 2000×g) to settle down cell debris. Supernatants were used immediately in subsequent qRT-PCR reactions or the plates were stored at −80° C. until use.
The levels of 18S rRNA transcripts from CP and host cells (referred to as Cp18S and Hs18S) were detected by real-time qRT-PCR method using qScrip™ one-step SYBR green qRT-PCR kit (Quanta Biosciences, Gaithersburg, Md.). Cell lysates prepared as described above were diluted by 100 and 2000 folds for detecting Cp18S and Hs18S transcripts, respectively. Reactions were performed in hard-shell 384-well skirted PCR plates (Bio-Rad Laboratories, Hercules, Calif.) (10 μL/well) containing 3 μL diluted cell lysate, 5 μL one-step SYBR green master mix, 0.2 μl RT master mix and the following primers: Cp18S-1011F and Cp18S-1185R primer pair for Cp18S rRNA, and Hs18S-1F and Hs18S-1R primer pair for Hs18S rRNA. Hs18S levels were used as controls and for normalization.
Real-time qRT-PCR reactions were performed by a Bio-Rad CFX384 Touch Real-Time PCR Detection System. The reactions started with synthesizing cDNA at 50° C. for 20 min, followed by 5 min at 95° C. to denature RNA-cDNA hybrids and deactivate reverse transcriptase, and 40 two-temperature thermal cycles of PCR amplification at 95° C., 10 sec and 58° C., 30 sec. At the end of PCR amplification, melting curve analysis was performed between 65° C. to 95° C. At least 2 technical replicates were included in qRT-PCR reactions for each sample.
The % inhibition (% inh @ (μM)) was calculated using a standard curve.

[1] = Cryptosporidium parvum, 44 h, CP in HCT-8 cells, 44 h infection, 50% reduction of parasite growth vs control, NA: not active, read-out: MIC50
[2] = CP in HCT-8 cells, 44 h infection, 50% reduction of parasite growth vs control, NA: not active, read-out: MIC50

`CC(C(=O)N1CCN(C)CC1)c1ccc(Oc2nc3ccc(Cl)cc3s2)cc1` (single isomer, unassigned) [NZ-366 (peak 1), 2-{4-[(6-chloro-1,3-benzothiazol-2-yl)oxy]phenyl}-1-(4-methylpiperazin-1-yl)propan-1-one] showed an MIC50 [1] of less than 0.05 µM and an inhibition at 0.05 µM (Cryptosporidium parvum, HCT-8, @0.05 uM, read-out: % inh @) of 85%.

For `CC(C(=O)N1CCN(C)CC1)c1ccc(Oc2nc3ccc(Cl)cc3s2)cc1` (single isomer, unassigned) [NZ-366 (peak 2), 2-{4-[(6-chloro-1,3-benzothiazol-2-yl)oxy]phenyl}-1-(4-methylpiperazin-1-yl)propan-1-one], the “% inh @ (μM)” value (@0.05 uM) was 81% @0.05 uM and the MIC50 [2] was less than 0.05 µM.

`CNC(=O)C(C)c1ccc(Oc2nc3ccc(Cl)cc3s2)cc1` (single isomer, unassigned) [NZ-369 (peak 1), 2-{4-[(6-chloro-1,3-benzothiazol-2-yl)oxy]phenyl}-N-methylpropanamide] showed an MIC50 [2] of 0.07 µM (≈ 0.0243 µg/mL).

With `CNC(=O)C(C)c1ccc(Oc2nc3ccc(Cl)cc3s2)cc1` (single isomer, unassigned) [NZ-369 (peak 2), 2-{4-[(6-chloro-1,3-benzothiazol-2-yl)oxy]phenyl}-N-methylpropanamide] the “MIC50” value (CP in HCT-8 cells, 44 h infection, 50% reduction of parasite growth vs control, NA: not active) was roughly 0.02 µM (≈ 0.00694 µg/mL).

`CS(=O)(=O)NC(=O)COc1ccc(Oc2cnc3cc(Cl)ccc3n2)cc1` [NZ-259, 2-{4-[(6-chloroquinoxalin-2-yl)oxy]phenoxy}-N-methanesulfonylacetamide] showed an MIC50 [1] greater than 10 µM and an inhibition at 10 µM (Cryptosporidium parvum, HCT-8, @10 uM, read-out: % inh @) of 33%.

`C[C@@H](Oc1ccc(Oc2nc3ccc([N+](=O)[O-])cc3s2)cc1)C(=O)O` [NZ-261, (2R)-2-{4-[(6-nitro-1,3-benzothiazol-2-yl)oxy]phenoxy}propanoic acid] showed an MIC50 (Cryptosporidium parvum, 44 h) of roughly 10 µM (≈ 3.6 µg/mL) and an inhibition at 10 µM (Cryptosporidium parvum, HCT-8, read-out: % inh @ (μM)) of 60%.

For `CN1CCN(C(=O)COc2ccc(Oc3cnc4cc(Cl)ccc4n3)cc2)CC1` [NZ-278, 2-{4-[(6-chloroquinoxalin-2-yl)oxy]phenoxy}-1-(4-methylpiperazin-1-yl)ethan-1-one], the MIC50 (Cryptosporidium parvum, 44 h) was roughly 0.25 µM (≈ 0.103 µg/mL).

For `CC(C(=O)NCCN)c1ccc(Oc2nc3ccc(Cl)cc3s2)cc1` (stereo not shown) [NZ-518, N-(2-aminoethyl)-2-{4-([6-chloro-1,3-benzothiazol-2-yl)oxy]phenyl}propanamide], the MIC50 [1] was greater than 0.45 µM.

In the case of `CNC(=O)C1(c2ccc(Oc3nc4ccc(Cl)cc4s3)cc2)CC1` [NZ-521, 1-{4-[(6-chloro-1,3-benzothiazol-2-yl)oxy]phenyl}-N-methylcyclopropane-1-carboxamide], the MIC50 [1] is reported as 0.25 µM (≈ 0.0897 µg/mL).

`CN1CCN(C(=O)C2(c3ccc(Oc4nc5ccc(Cl)cc5s4)cc3)CC2)CC1` [NZ-522, 6-chloro-2-{4-[1-(4-methylpiperazine-1-carbonyl)cyclopropyl]phenoxy}-1,3-benzothiazole] showed an MIC50 [1] of 0.022 to 0.045 µM (≈ 0.00942 to 0.0193 µg/mL).

In the case of `CC(C(=O)N1CCOCC1)c1ccc(Oc2cnc3cc(Cl)ccc3n2)cc1` (stereo not shown) [NZ-529, 2-{4-[(6-chloroquinoxalin-2-yl)oxy]phenyl}-1-(morpholin-4-yl)propan-1-one], the MIC50 [1] is reported as greater than 0.45 µM.

`CC(C(=O)N(C)C)c1ccc(Oc2cnc3cc(Cl)ccc3n2)cc1` (stereo not shown) [NZ-530, 2-{4-([6-chloroquinoxalin-2-yl)oxy]phenyl}-N,N-dimethylpropanamide] gave an MIC50 [1] of roughly 0.225 µM (≈ 0.0801 µg/mL).

With `CC(C(=O)NCCN(C)C)c1ccc(Oc2cnc3cc(Cl)ccc3n2)cc1` (stereo not shown) [NZ-535] the MIC50 [1] was 0.225 to 0.45 µM (≈ 0.0898 to 0.18 µg/mL).

For `COCC(COC)NC(=O)C(C)c1ccc(Oc2nc3ccc(Cl)cc3s2)cc1` (stereo not shown) [NZ-542, 2-{4-[(6-chloro-1,3-benzothiazol-2-yl)oxy]phenyl}-N-(1,3-dimethoxypropan-2-yl)propanamide], the MIC50 [1] was 0.112 µM (≈ 0.0487 µg/mL).

`CC(C(=O)N(C)CCN(C)C)c1ccc(Oc2nc3ccc(Cl)cc3s2)cc1` (stereo not shown) [NZ-547, 2-{4-[(6-chloro-1,3-benzothiazol-2-yl)oxy]phenyl}-N-[2-(dimethylamino)ethyl]-N-methylpropanamide] was tested, and the MIC50 [1] was less than 0.056 µM and the inhibition at 0.056 µM (Cryptosporidium parvum) was 96%.

Compound `CNCCNC(=O)C(C)c1ccc(Oc2nc3ccc(Cl)cc3s2)cc1` (stereo not shown) [NZ-548, 2-{4-[(6-chloro-1,3-benzothiazol-2-yl)oxy]phenyl}-N-[2-(methylamino)ethyl]propanamide] has an MIC50 [1] of 0.112 to 0.225 µM (≈ 0.0437 to 0.0877 µg/mL) and an inhibition at 0.112 µM (Cryptosporidium parvum, HCT-8, @0.112 uM) of 45%.

With `CC(C(=O)N1CCOC(C(N)=O)C1)c1ccc(Oc2nc3ccc(Cl)cc3s2)cc1` (stereo not shown) [NZ-554, 4-(2-{4-[(6-chloro-1,3-benzothiazol-2-yl)oxy]phenyl}propanoyl)morpholine-2-carboxamide] the MIC50 [1] was 0.056 to 0.112 µM (≈ 0.025 to 0.0499 µg/mL).

In the case of `CC(C(=O)N1CCOCC1CO)c1ccc(Oc2nc3ccc(Cl)cc3s2)cc1` (stereo not shown) [NZ-555, 2-{4-[(6-chloro-1,3-benzothiazol-2-yl)oxy]phenyl}-1-[3-(hydroxymethyl)morpholin-4-yl]propan-1-one], the MIC50 [1] is reported as less than 0.056 µM and the inhibition at 0.056 µM (Cryptosporidium parvum) is reported as 79%.

Work on `CC(C(=O)NCCN(C)CCO)c1ccc(Oc2nc3ccc(Cl)cc3s2)cc1` (stereo not shown) [NZ-556, 2-{4-[(6-chloro-1,3-benzothiazol-2-yl)oxy]phenyl}-N-{2-[(2-hydroxyethyl)(methyl)amino]ethyl}propanamide] yielded an MIC50 [1] of roughly 0.056 µM (≈ 0.0243 µg/mL) and an inhibition at 0.056 µM (Cryptosporidium parvum) of 64%.

For `CC(C(=O)NCCN(CCO)CCO)c1ccc(Oc2nc3ccc(Cl)cc3s2)cc1` (stereo not shown) [NZ-557, N-{2-[bis(2-hydroxyethyl)amino]ethyl}-2-{4-[(6-chloro-1,3-benzothiazol-2-yl)oxy]phenyl}propanamide], the MIC50 [1] was 0.112 to 0.225 µM (≈ 0.052 to 0.104 µg/mL).

With `CC(C(=O)N1CCOC(CO)C1)c1ccc(Oc2nc3ccc(Cl)cc3s2)cc1` (stereo not shown) [NZ-558, 2-{4-[(6-chloro-1,3-benzothiazol-2-yl)oxy]phenyl}-1-[2-(hydroxymethyl)morpholin-4-yl]propan-1-one] the MIC50 [1] was roughly 0.056 µM (≈ 0.0242 µg/mL).

For `O=C(N1CCOCC1)C1(c2ccc(Oc3nc4ccc(Cl)cc4s3)cc2)CC1` [NZ-561, 6-chloro-2-{4-[1-(morpholine-4-carbonyl)cyclopropyl]phenoxy}-1,3-benzothiazole], the MIC50 [1] was 0.04 µM (≈ 0.0166 µg/mL).

In the case of `CC(C(=O)NC1CNC(=O)C1)c1ccc(Oc2nc3ccc(Cl)cc3s2)cc1` (stereo not shown) [NZ-562, 2-{4-[(6-chloro-1,3-benzothiazol-2-yl)oxy]phenyl}-N-(5-oxopyrrolidin-3-yl)propanamide], the MIC50 [1] is reported as roughly 0.45 µM (≈ 0.187 µg/mL).

`O=C(N1CCS(=O)(=O)CC1)C1(c2ccc(Oc3nc4ccc(Cl)cc4s3)cc2)CC1` [NZ-563, 4-(1-{4-[(6-chloro-1,3-benzothiazol-2-yl)oxy]phenyl}cyclopropanecarbonyl)-1λ^6,4-thiomorpholine-1,1-dione] was tested, and the MIC50 [1] was 0.018 µM (≈ 0.00833 µg/mL).

Work on `O=C(NC1COC1)C1(c2ccc(Oc3nc4ccc(Cl)cc4s3)cc2)CC1` [NZ-564, 1-{4-[(6-chloro-1,3-benzothiazol-2-yl)oxy]phenyl}-N-(oxetan-3-yl)cyclopropane-1-carboxamide] yielded an MIC50 [1] of 0.054 µM (≈ 0.0216 µg/mL).

`O=C(Nc1ccc(Oc2nc3ccc(Cl)cc3s2)cc1)N1CCOCC1` [NZ-572, N-{4-[(6-chloro-1,3-benzothiazol-2-yl)oxy]phenyl}morpholine-4-carboxamide] gave an MIC50 [1] of roughly 0.5 µM (≈ 0.195 µg/mL).

Compound `O=C(Nc1ccc(Oc2nc3ccc(Cl)cc3s2)cc1)N1CCS(=O)(=O)CC1` [NZ-573, N-{4-[(6-chloro-1,3-benzothiazol-2-yl)oxy]phenyl}-1,1-dioxo-1λ^6,4-thiomorpholine-4-carboxamide] has an MIC50 [1] of roughly 0.5 µM (≈ 0.219 µg/mL).

Work on `O=C(Nc1ccc(Oc2nc3ccc(Cl)cc3s2)cc1)NC1COC1` [NZ-574, 1-{4-[(6-chloro-1,3-benzothiazol-2-yl)oxy]phenyl}-3-(oxetan-3-yl)urea] yielded an MIC50 [1] of roughly 1 µM (≈ 0.376 µg/mL).

`O=C(Cc1ccc(Oc2nc3ccc(Cl)cc3s2)cc1)N1CCOCC1` [NZ-575, 2-{4-[(6-chloro-1,3-benzothiazol-2-yl)oxy]phenyl}-1-(morpholin-4-yl)ethan-1-one] showed an MIC50 [1] of roughly 1 µM (≈ 0.389 µg/mL).

Reference: patent publication US11083717B2, “Compositions and methods for drug sensitization of parasites” (The Texas A&M University System, priority 2015, dated 2021)
